Tested on: E. coli DH5α
Experiment: Antibacterial activity: MIC and growth curve against E. coli DH5α in 96-well plate
Format: cell-based
Settings: minimal inhibitory concentration against E. coli DH5α; 96-well plate, 5×10^5 CFU/mL, 37° C., judged after 8 h
Outline: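 Log-phase bacteria (OD600 ~0.5) resuspended in LB at 5×10^5 CFU/mL, exposed to recombinant protein at 50, 25, 12.5 μg/mL final in triplicate, 37 °C shaking at 175 rpm. OD600 read every 30 min; MIC is lowest concentration showing no growth.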

| Substance | MIC [µg/mL] |
| --- | --- |
| PRT237 (DINECTPPYSVYCGFNAVCYNVEGSFYCQCVPGYRLHSGNEQFSNSNENTCQ; listed as Homo sapiens) | 25 |
| PRT1141 (EINECSSEPCKNNGTCVDLTNRFFCNCEPEYHGPFCE; listed as Homo sapiens) | 50 |
| PRT1339 (EINNCLLPSAGGCHDNASCLYVGPGQNECECKKGFRGNGIDCE; listed as Homo sapiens) | 25 |
| PRT227 (KGNNCRDSTLCPAYATCTNTVDSYYCACKQGFLSSNGQNHFKDPGVRCK; listed as Homo sapiens) | 12.5 |

Tested on: E. coli BL21
Experiment: MIC against Gram-negative bacteria: E. coli BL21
Format: cell-based
Settings: 10 h cultivation at 37° C., 5×10^5 CFU/mL, two-fold serial dilution
Outline: (§1)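 The recombinant human-originated EGF domain proteins were serially diluted two-fold against bacteria at 5×10^5 CFU/mL in LB medium. After shaken incubation at 37° C, the lowest concentration with no bacterial growth was recorded as the MIC.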

| Substance | MIC E. coli BL21 [µg/mL] |
| --- | --- |
| PRT1141 (EINECSSEPCKNNGTCVDLTNRFFCNCEPEYHGPFCE; listed as Homo sapiens) | 12.5 |

Same assay, conditions: E. coli BL21; 96-well plate, 5×10^5 CFU/mL, 37° C., 10 h

| Substance | MIC against E. coli BL21 [µg/mL] |
| --- | --- |
| PRT1339 (EINNCLLPSAGGCHDNASCLYVGPGQNECECKKGFRGNGIDCE; listed as Homo sapiens) | 12.5 |

Same assay, conditions: E. coli BL21; 10 h cultivation at 37° C.; 5×10^5 CFU/mL

| Substance | MIC (μg/mL) E. coli BL21 [µg/mL] |
| --- | --- |
| PRT237 (DINECTPPYSVYCGFNAVCYNVEGSFYCQCVPGYRLHSGNEQFSNSNENTCQ; listed as Homo sapiens) | 12.5 |
| PRT227 (KGNNCRDSTLCPAYATCTNTVDSYYCACKQGFLSSNGQNHFKDPGVRCK; listed as Homo sapiens) | 12.5 |

Tested on: Pseudomonas aeruginosa
Experiment: MIC against Gram-negative bacteria: Pseudomonas aeruginosa
Format: cell-based
Settings: 10 h cultivation at 37° C., 5×10^5 CFU/mL, two-fold serial dilution
Outline: as §1

| Substance | MIC P. aeruginosa [µg/mL] |
| --- | --- |
| PRT1141 (EINECSSEPCKNNGTCVDLTNRFFCNCEPEYHGPFCE; listed as Homo sapiens) | 50 |

Same assay, conditions: P. aeruginosa; 10 h cultivation at 37° C.; 5×10^5 CFU/mL

| Substance | MIC (μg/mL) P. aeruginosa [µg/mL] |
| --- | --- |
| PRT237 (DINECTPPYSVYCGFNAVCYNVEGSFYCQCVPGYRLHSGNEQFSNSNENTCQ; listed as Homo sapiens) | 25 |
| PRT227 (KGNNCRDSTLCPAYATCTNTVDSYYCACKQGFLSSNGQNHFKDPGVRCK; listed as Homo sapiens) | 12.5 |

Same assay, conditions: Pseudomonas aeruginosa; 96-well plate, 5×10^5 CFU/mL, 37° C., 10 h

| Substance | MIC against P. aeruginosa [µg/mL] |
| --- | --- |
| PRT1339 (EINNCLLPSAGGCHDNASCLYVGPGQNECECKKGFRGNGIDCE; listed as Homo sapiens) | 12.5 |

Tested on: Klebsiella pneumonia
Experiment: MIC against Gram-negative bacteria: Klebsiella pneumonia
Format: cell-based
Settings: 10 h cultivation at 37° C., 5×10^5 CFU/mL, two-fold serial dilution
Outline: as §1

| Substance | MIC K. pneumonia [µg/mL] |
| --- | --- |
| PRT1141 (EINECSSEPCKNNGTCVDLTNRFFCNCEPEYHGPFCE; listed as Homo sapiens) | 12.5 |

Same assay, conditions: K. pneumonia; 10 h cultivation at 37° C.; 5×10^5 CFU/mL

| Substance | MIC (μg/mL) K. pneumonia [µg/mL] |
| --- | --- |
| PRT237 (DINECTPPYSVYCGFNAVCYNVEGSFYCQCVPGYRLHSGNEQFSNSNENTCQ; listed as Homo sapiens) | 12.5 |
| PRT227 (KGNNCRDSTLCPAYATCTNTVDSYYCACKQGFLSSNGQNHFKDPGVRCK; listed as Homo sapiens) | 12.5 |

Same assay, conditions: Klebsiella pneumonia; 96-well plate, 5×10^5 CFU/mL, 37° C., 10 h

| Substance | MIC against K. pneumonia [µg/mL] |
| --- | --- |
| PRT1339 (EINNCLLPSAGGCHDNASCLYVGPGQNECECKKGFRGNGIDCE; listed as Homo sapiens) | 25 |

Tested on: Enterobacter cloacae
Experiment: MIC against Gram-negative bacteria: Enterobacter cloacae
Format: cell-based
Settings: 10 h cultivation at 37° C., 5×10^5 CFU/mL, two-fold serial dilution
Outline: as §1

| Substance | MIC E. cloacae [µg/mL] |
| --- | --- |
| PRT1141 (EINECSSEPCKNNGTCVDLTNRFFCNCEPEYHGPFCE; listed as Homo sapiens) | 50 |

Same assay, conditions: E. cloacae; 10 h cultivation at 37° C.; 5×10^5 CFU/mL

| Substance | MIC (μg/mL) E. cloacae [µg/mL] |
| --- | --- |
| PRT237 (DINECTPPYSVYCGFNAVCYNVEGSFYCQCVPGYRLHSGNEQFSNSNENTCQ; listed as Homo sapiens) | 25 |
| PRT227 (KGNNCRDSTLCPAYATCTNTVDSYYCACKQGFLSSNGQNHFKDPGVRCK; listed as Homo sapiens) | 12.5 |

Same assay, conditions: Enterobacter cloacae; 96-well plate, 5×10^5 CFU/mL, 37° C., 10 h

| Substance | MIC against E. cloacae [µg/mL] |
| --- | --- |
| PRT1339 (EINNCLLPSAGGCHDNASCLYVGPGQNECECKKGFRGNGIDCE; listed as Homo sapiens) | 12.5 |

Tested on: Aeromonas hydrophila
Experiment: MIC against Gram-negative bacteria: Aeromonas hydrophila
Format: cell-based
Settings: 10 h cultivation at 37° C., 5×10^5 CFU/mL, two-fold serial dilution
Outline: as §1

| Substance | MIC A. hydrophila [µg/mL] |
| --- | --- |
| PRT1141 (EINECSSEPCKNNGTCVDLTNRFFCNCEPEYHGPFCE; listed as Homo sapiens) | 12.5 |

Same assay, conditions: A. hydrophila; 10 h cultivation at 37° C.; 5×10^5 CFU/mL

| Substance | MIC (μg/mL) A. hydrophila [µg/mL] |
| --- | --- |
| PRT237 (DINECTPPYSVYCGFNAVCYNVEGSFYCQCVPGYRLHSGNEQFSNSNENTCQ; listed as Homo sapiens) | 12.5 |
| PRT227 (KGNNCRDSTLCPAYATCTNTVDSYYCACKQGFLSSNGQNHFKDPGVRCK; listed as Homo sapiens) | 12.5 |

Same assay, conditions: Aeromonas hydrophila; 96-well plate, 5×10^5 CFU/mL, 37° C., 10 h

| Substance | MIC against A. hydrophila [µg/mL] |
| --- | --- |
| PRT1339 (EINNCLLPSAGGCHDNASCLYVGPGQNECECKKGFRGNGIDCE; listed as Homo sapiens) | 50 |

Tested on: Citrobacter diversus
Experiment: MIC against Gram-negative bacteria: Citrobacter diversus
Format: cell-based
Settings: 10 h cultivation at 37° C., 5×10^5 CFU/mL, two-fold serial dilution
Outline: as §1

| Substance | MIC C. diversus [µg/mL] |
| --- | --- |
| PRT1141 (EINECSSEPCKNNGTCVDLTNRFFCNCEPEYHGPFCE; listed as Homo sapiens) | 25 |

Same assay, conditions: C. diversus; 10 h cultivation at 37° C.; 5×10^5 CFU/mL

| Substance | MIC (μg/mL) C. diversus [µg/mL] |
| --- | --- |
| PRT237 (DINECTPPYSVYCGFNAVCYNVEGSFYCQCVPGYRLHSGNEQFSNSNENTCQ; listed as Homo sapiens) | 25 |
| PRT227 (KGNNCRDSTLCPAYATCTNTVDSYYCACKQGFLSSNGQNHFKDPGVRCK; listed as Homo sapiens) | 50 |

Same assay, conditions: Citrobacter diversus; 96-well plate, 5×10^5 CFU/mL, 37° C., 10 h

| Substance | MIC against C. diversus [µg/mL] |
| --- | --- |
| PRT1339 (EINNCLLPSAGGCHDNASCLYVGPGQNECECKKGFRGNGIDCE; listed as Homo sapiens) | 25 |

Tested on: Moraxella catarrhalis
Experiment: MIC against Gram-negative bacteria: Moraxella catarrhalis
Format: cell-based
Settings: 10 h cultivation at 37° C., 5×10^5 CFU/mL, two-fold serial dilution
Outline: as §1

| Substance | MIC M. catarrhalis [µg/mL] |
| --- | --- |
| PRT1141 (EINECSSEPCKNNGTCVDLTNRFFCNCEPEYHGPFCE; listed as Homo sapiens) | 50 |

Same assay, conditions: M. catarrhalis; 10 h cultivation at 37° C.; 5×10^5 CFU/mL

| Substance | MIC (μg/mL) M. catarrhalis [µg/mL] |
| --- | --- |
| PRT237 (DINECTPPYSVYCGFNAVCYNVEGSFYCQCVPGYRLHSGNEQFSNSNENTCQ; listed as Homo sapiens) | 12.5 |
| PRT227 (KGNNCRDSTLCPAYATCTNTVDSYYCACKQGFLSSNGQNHFKDPGVRCK; listed as Homo sapiens) | 25 |

Same assay, conditions: Moraxella catarrhalis; 96-well plate, 5×10^5 CFU/mL, 37° C., 10 h

| Substance | MIC against M. catarrhalis [µg/mL] |
| --- | --- |
| PRT1339 (EINNCLLPSAGGCHDNASCLYVGPGQNECECKKGFRGNGIDCE; listed as Homo sapiens) | 12.5 |

Tested on: Proteus mirabilis
Experiment: MIC against Gram-negative bacteria: Proteus mirabilis
Format: cell-based
Settings: 10 h cultivation at 37° C., 5×10^5 CFU/mL, two-fold serial dilution
Outline: as §1

| Substance | MIC P. mirabilis [µg/mL] |
| --- | --- |
| PRT1141 (EINECSSEPCKNNGTCVDLTNRFFCNCEPEYHGPFCE; listed as Homo sapiens) | 25 |

Same assay, conditions: P. mirabilis; 10 h cultivation at 37° C.; 5×10^5 CFU/mL

| Substance | MIC (μg/mL) P. mirabilis [µg/mL] |
| --- | --- |
| PRT237 (DINECTPPYSVYCGFNAVCYNVEGSFYCQCVPGYRLHSGNEQFSNSNENTCQ; listed as Homo sapiens) | 25 |
| PRT227 (KGNNCRDSTLCPAYATCTNTVDSYYCACKQGFLSSNGQNHFKDPGVRCK; listed as Homo sapiens) | 12.5 |

Same assay, conditions: Proteus mirabilis; 96-well plate, 5×10^5 CFU/mL, 37° C., 10 h

| Substance | MIC against P. mirabilis [µg/mL] |
| --- | --- |
| PRT1339 (EINNCLLPSAGGCHDNASCLYVGPGQNECECKKGFRGNGIDCE; listed as Homo sapiens) | 25 |

Tested on: Proteus vulgaris
Experiment: MIC against Gram-negative bacteria: Proteus vulgaris
Format: cell-based
Settings: 10 h cultivation at 37° C., 5×10^5 CFU/mL, two-fold serial dilution
Outline: as §1

| Substance | MIC P. vulgaris [µg/mL] |
| --- | --- |
| PRT1141 (EINECSSEPCKNNGTCVDLTNRFFCNCEPEYHGPFCE; listed as Homo sapiens) | 12.5 |

Same assay, conditions: P. vulgaris; 10 h cultivation at 37° C.; 5×10^5 CFU/mL

| Substance | MIC (μg/mL) P. vulgaris [µg/mL] |
| --- | --- |
| PRT237 (DINECTPPYSVYCGFNAVCYNVEGSFYCQCVPGYRLHSGNEQFSNSNENTCQ; listed as Homo sapiens) | 25 |
| PRT227 (KGNNCRDSTLCPAYATCTNTVDSYYCACKQGFLSSNGQNHFKDPGVRCK; listed as Homo sapiens) | 25 |

Same assay, conditions: Proteus vulgaris; 96-well plate, 5×10^5 CFU/mL, 37° C., 10 h

| Substance | MIC against P. vulgaris [µg/mL] |
| --- | --- |
| PRT1339 (EINNCLLPSAGGCHDNASCLYVGPGQNECECKKGFRGNGIDCE; listed as Homo sapiens) | 50 |

Tested on: Serratia marcescens
Experiment: MIC against Gram-negative bacteria: Serratia marcescens
Format: cell-based
Settings: 10 h cultivation at 37° C., 5×10^5 CFU/mL, two-fold serial dilution
Outline: as §1

| Substance | MIC S. marcescens [µg/mL] |
| --- | --- |
| PRT1141 (EINECSSEPCKNNGTCVDLTNRFFCNCEPEYHGPFCE; listed as Homo sapiens) | 25 |

Same assay, conditions: S. marcescens; 10 h cultivation at 37° C.; 5×10^5 CFU/mL

| Substance | MIC (μg/mL) S. marcescens [µg/mL] |
| --- | --- |
| PRT237 (DINECTPPYSVYCGFNAVCYNVEGSFYCQCVPGYRLHSGNEQFSNSNENTCQ; listed as Homo sapiens) | 50 |
| PRT227 (KGNNCRDSTLCPAYATCTNTVDSYYCACKQGFLSSNGQNHFKDPGVRCK; listed as Homo sapiens) | 50 |

Same assay, conditions: Serratia marcescens; 96-well plate, 5×10^5 CFU/mL, 37° C., 10 h

| Substance | MIC against S. marcescens [µg/mL] |
| --- | --- |
| PRT1339 (EINNCLLPSAGGCHDNASCLYVGPGQNECECKKGFRGNGIDCE; listed as Homo sapiens) | 25 |

Reference: patent US9833497B2, “Human originated EGF domain proteins and use of the same” (CHENGDU SOURCEBIO LIMITED-LIABILITY COMPANY, priority 2013, dated 2017)
